Experimental data published in ChEMBL document CHEMBL5532639, “Heterocyclic pyrimidine derivatives as promising antibacterial agents” (Eur J Med Chem, 2023).
Converted amounts (≈) assume the structure as drawn. One block for each compound: values may come before it.

Tests used:
Bacillus subtilis [1] = assay: Antibacterial activity against Bacillus subtilis assessed as inhibition of bacterial growth incubated for 4 to 20 hrs by resazurin based microplate reader analysis; format: functional; conditions: time 4-20 hrs
Staphylococcus aureus [2] = assay: Antibacterial activity against Staphylococcus aureus assessed as inhibition of bacterial growth incubated for 4 to 20 hrs by resazurin based microplate reader analysis; format: functional; conditions: time 4-20 hrs
Pseudomonas aeruginosa [3] = assay: Antibacterial activity against Pseudomonas aeruginosa assessed as inhibition of bacterial growth incubated for 4 to 20 hrs by resazurin based microplate reader analysis; format: functional; conditions: time 4-20 hrs
Escherichia coli [4] = assay: Antibacterial activity against Escherichia coli assessed as inhibition of bacterial growth incubated for 4 to 20 hrs by resazurin based microplate reader analysis; format: functional; conditions: time 4-20 hrs
Pseudomonas aeruginosa [5] = assay: Antibacterial activity against Pseudomonas aeruginosa ATCC 85327 assessed as reduction in bacterial growth measured after 24 hrs by Mueller-Hinton broth assay; format: functional
Escherichia coli [6] = assay: microbe, parasite or virus in culture; conditions: ATCC 25922, 24 h
Description: Antibacterial activity against Escherichia coli ATCC 25922 assessed as reduction in bacterial growth measured after 24 hrs by Mueller-Hinton broth assay

Staphylococcus aureus [7] = assay: microbe, parasite or virus in culture; conditions: ATCC 25923, 24 h
Description: Antibacterial activity against Staphylococcus aureus ATCC 25923 assessed as reduction in bacterial growth measured after 24 hrs by Mueller-Hinton broth assay

Bacillus subtilis [8] = assay: Antibacterial activity against Bacillus subtilis ATCC 465 assessed as reduction in bacterial growth measured after 24 hrs by Mueller-Hinton broth assay; format: functional
Staphylococcus xylosus = assay: Antibacterial activity against Staphylococcus xylosus assessed as reduction in bacterial growth; format: functional
Acinetobacter sp. = assay: Antibacterial activity against Acinetobacter sp.; format: functional
Micrococcus sp. = assay: Antibacterial activity against Micrococcus sp.; format: functional
Micrococcus luteus [9] = assay: Antibacterial activity against Micrococcus luteus assessed as bacterial growth inhibition by paper disc diffusion assay; format: functional
Corynebacterium xerosis = assay: Antibacterial activity against Corynebacterium xerosis; format: functional
[10] = system: Corynebacterium glutamicum; assay: Antibacterial activity against Corynebacterium glutamicum ATCC 13032 cultured in MHB medium assessed as no bacterial growth incubated at 20 degC for 24 hrs by microdilution susceptibility test; format: functional
[11] = system: Staphylococcus epidermidis; assay: Antibacterial activity against Staphylococcus epidermidis assessed as reduction in bacterial growth measured after 24 hrs by broth microdilution method; format: functional
[12] = system: Corynebacterium glutamicum; assay: Antibacterial activity against Corynebacterium glutamicum; format: functional
Corynebacterium sp. = assay: Antibacterial activity against Corynebacterium sp.; format: functional
Alcaligenes faecalis = assay: Antibacterial activity against Alcaligenes faecalis; format: functional
[13] = system: Staphylococcus epidermidis; assay: Antibacterial activity against Staphylococcus epidermidis assessed as reduction in microbial growth after 24 hrs by CLSI based microdilution method; format: functional
[14] = system: Staphylococcus haemolyticus; assay: Antibacterial activity against Staphylococcus haemolyticus clinical isolates assessed as bacterial growth inhibition measured after 16 to 24 hrs by broth microdilution assay; format: functional; conditions: time 16-24 hrs
Moraxella catarrhalis = assay: Antibacterial activity against Moraxella catarrhalis assessed as reduction in bacterial growth by broth microdilution method; format: functional
Staphylococcus hominis = assay: Antibacterial activity against Staphylococcus hominis; format: functional
Micrococcus luteus [15] = assay: Antibacterial activity against Micrococcus luteus assessed as reduction in microbial growth; format: functional
[16] = system: Arcanobacterium haemolyticum; assay: Antibacterial activity against Arcanobacterium haemolyticum; format: functional
Staphylococcus cohnii = assay: Antibacterial activity against Staphylococcus cohnii; format: functional
Escherichia coli [17] = assay: Antibacterial activity against Escherichia coli assessed as zone of inhibition at 50 microg/ml by cup plate analysis; format: functional; conditions: read-out: IZ
Proteus vulgaris = assay: Antibacterial activity against Proteus vulgaris assessed as zone of inhibition at 50 microg/ml by cup plate analysis; format: functional; conditions: read-out: IZ
Bacillus pumilus = assay: Antibacterial activity against Bacillus pumilus assessed as zone of inhibition at 50 microg/ml by cup plate analysis; format: functional; conditions: read-out: IZ
Bacillus subtilis [18] = assay: Antibacterial activity against Bacillus subtilis assessed as zone of inhibition at 50 microg/ml by cup plate analysis; format: functional; conditions: read-out: IZ
Staphylococcus aureus [19] = assay: Antibacterial activity against Staphylococcus aureus assessed as bacterial growth inhibition incubated for 24 hrs by CLSI protocol based Mueller-Hinton broth assay; format: functional
Enterococcus raffinosus = assay: Antibacterial activity against Enterococcus raffinosus assessed as bacterial growth inhibition incubated for 24 hrs by CLSI protocol based Mueller-Hinton broth assay; format: functional
Escherichia coli [20] = assay: Antibacterial activity against Escherichia coli assessed as reduction in bacterial growth incubated for 16 to 20 hrs by Mueller-Hinton broth based two-fold serial dilution method; format: functional; conditions: time 16-20 hrs
Pseudomonas aeruginosa [21] = assay: Antibacterial activity against Pseudomonas aeruginosa assessed as reduction in microbial growth after 18 hrs by MTT based broth dilution method; format: functional
Streptococcus pyogenes [22] = assay: Antibacterial activity against Streptococcus pyogenes assessed as inhibition of microbial growth by broth micro-dilution method; format: functional
Staphylococcus aureus [23] = assay: Antibacterial activity against Staphylococcus aureus assessed as inhibition of microbial growth by broth micro-dilution method; format: functional
Escherichia coli [24] = assay: Antibacterial activity against Escherichia coli assessed as reduction in bacterial growth by broth microdilution method; format: functional
Bacillus subtilis [25] = assay: Antibacterial activity against Bacillus subtilis assessed as reduction in bacterial cell viability by well plate method; format: functional
[26] = system: Staphylococcus epidermidis; assay: Antibacterial activity against Staphylococcus epidermidis assessed as reduction in microbial growth; format: functional
Klebsiella pneumoniae [27] = assay: Antibacterial activity against Klebsiella pneumoniae assessed as reduction in bacterial growth by broth microdilution method; format: functional
Escherichia coli [28] = assay: Antibacterial activity Escherichia coli assessed as reduction in bacterial growth; format: functional
Streptococcus pyogenes [29] = assay: Antibacterial activity against Streptococcus pyogenes assessed as reduction in microbial growth incubated for 24 hrs by broth micro-dilution method; format: functional
Escherichia coli [30] = assay: Antibacterial activity against Escherichia coli assessed as inhibition of microbial growth by broth micro-dilution method; format: functional
Pseudomonas aeruginosa [31] = assay: Antibacterial activity against Pseudomonas aeruginosa assessed as inhibition of microbial growth by broth micro-dilution method; format: functional
Klebsiella pneumoniae [32] = assay: Antibacterial activity against Klebsiella pneumoniae assessed as reduction in bacterial growth incubated for 16 to 20 hrs by Mueller-Hinton broth based two-fold serial dilution method; format: functional; conditions: time 16-20 hrs
Staphylococcus aureus [33] = assay: Antibacterial activity against Staphylococcus aureus assessed as reduction in bacterial growth incubated for 16 to 20 hrs by Mueller-Hinton broth based two-fold serial dilution method; format: functional; conditions: time 16-20 hrs
Pseudomonas aeruginosa [34] = assay: Antibacterial activity against Pseudomonas aeruginosa assessed as reduction in bacterial growth incubated for 24 hrs by broth microdilution method; format: functional

MIC (Bacillus subtilis [1]): 12.5 µg/mL (≈ 23 µM) | MIC (Staphylococcus aureus [2]): 12.5 µg/mL (≈ 23 µM) | MIC (Pseudomonas aeruginosa [3]): 50 µg/mL (≈ 91.8 µM) | MIC (Escherichia coli [4]): 50 µg/mL (≈ 91.8 µM)
Structure (SMILES): Cc1nc(NC(=O)c2cc(C(F)(F)F)cc(C(F)(F)F)c2)c2c(C(F)(F)F)cc(-c3ccccc3)nc2n1

MIC (Pseudomonas aeruginosa [5]): 512 µg/mL (≈ 1630 µM) | MIC (Escherichia coli [6]): 512 µg/mL (≈ 1630 µM) | MIC (Staphylococcus aureus [7]): 2 µg/mL (≈ 6.38 µM) | MIC (Bacillus subtilis [8]): 8 µg/mL (≈ 25.5 µM)
Structure (SMILES): N#Cc1nc2[nH]c(=O)[nH]c(=O)c2c(-c2ccc(Cl)cc2)c1N

MIC (Staphylococcus xylosus): 100 µg/mL (≈ 264 µM) | MIC (Acinetobacter sp.): > 500 µg/mL | MIC (Micrococcus sp.): 100 µg/mL (≈ 264 µM) | MIC (Micrococcus luteus [9]): 100 µg/mL (≈ 264 µM) | MIC (Corynebacterium xerosis): 30 µg/mL (≈ 79.2 µM) | MIC [10]: 100 µg/mL (≈ 264 µM) | MIC [11]: 100 µg/mL (≈ 264 µM) | MIC [12]: 100 µg/mL (≈ 264 µM) | MIC (Corynebacterium sp.): 100 µg/mL (≈ 264 µM) | MIC (Alcaligenes faecalis): > 500 µg/mL | MIC [13]: 100 µg/mL | MIC (Moraxella catarrhalis): 500 µg/mL (≈ 1320 µM) | MIC (Staphylococcus hominis): 100 µg/mL (≈ 264 µM) | MIC (Micrococcus luteus [15]): 100 µg/mL | MIC (Staphylococcus cohnii): 100 µg/mL (≈ 264 µM)
Structure (SMILES): Nc1nc(Cl)c(C(Cc2ccccc2)c2ccc(Cl)cc2)c(Cl)n1 (stereo unspecified)
MIC [14]: 100 µg/mL (≈ 264 µM) | MIC [16]: 10 µg/mL (≈ 26.4 µM)

Structure (SMILES): Nc1nc(-c2ccc(F)cc2)cc(-c2ccsc2)n1
zone of inhibition at 50 µg/mL (Escherichia coli [17]): 13 mm | zone of inhibition at 50 µg/mL (Proteus vulgaris): 14 mm | zone of inhibition at 50 µg/mL (Bacillus pumilus): 14 mm | zone of inhibition at 50 µg/mL (Bacillus subtilis [18]): 17 mm

MIC (Staphylococcus aureus [19]): 4.2 µg/mL (≈ 13.2 µM) | MIC (Enterococcus raffinosus): 14.2 µg/mL (≈ 44.7 µM)
Structure (SMILES): COc1ccc(-c2nc(-c3ccccc3)nc3[nH]nc(N)c23)cc1

Structure (SMILES): O=C(O)c1cn(C2CC2)c2cc(N3CCNCC3)c(F)cc2c1=O [CIPROFLOXACIN]
MIC (Escherichia coli [20]): 25 µg/mL (≈ 75.4 µM) | MIC (Pseudomonas aeruginosa [21]): 22 µg/mL | MIC (Streptococcus pyogenes [22]): 50 µg/mL | MIC (Staphylococcus aureus [23]): 50 µg/mL | MIC (Escherichia coli [24]): 25 µg/mL (≈ 75.4 µM) | MIC (Bacillus subtilis [25]): 24 µg/mL (≈ 72.4 µM) | MIC [26]: 22 µg/mL | MIC (Klebsiella pneumoniae [27]): 22 µg/mL (≈ 66.4 µM) | MIC (Escherichia coli [28]): 22 µg/mL (≈ 66.4 µM) | MIC (Streptococcus pyogenes [29]): 12.5 µg/mL | MIC (Escherichia coli [30]): 25 µg/mL | MIC (Pseudomonas aeruginosa [31]): 200 µg/mL

MIC (Escherichia coli [6]): 512 µg/mL (≈ 1750 µM) | MIC (Staphylococcus aureus [7]): 32 µg/mL (≈ 109 µM) | MIC (Bacillus subtilis [8]): 2 µg/mL (≈ 6.82 µM)
Structure (SMILES): Cc1ccc(-c2c(N)c(C#N)nc3[nH]c(=O)[nH]c(=O)c23)cc1

Structure (SMILES): Nc1nc(-c2ccsc2)cc(-c2ccc(Cl)cc2Cl)n1
zone of inhibition at 50 µg/mL (Escherichia coli [17]): 12 mm | zone of inhibition at 50 µg/mL (Proteus vulgaris): 15 mm | zone of inhibition at 50 µg/mL (Bacillus pumilus): 13 mm | zone of inhibition at 50 µg/mL (Bacillus subtilis [18]): 16 mm

MIC (Bacillus subtilis [1]): 12.5 µg/mL (≈ 30.5 µM) | MIC (Staphylococcus aureus [2]): 12.5 µg/mL (≈ 30.5 µM) | MIC (Pseudomonas aeruginosa [3]): 50 µg/mL (≈ 122 µM) | MIC (Escherichia coli [4]): 50 µg/mL (≈ 122 µM)
Structure (SMILES): Cc1nc(NC(=O)c2ccncc2)c2c(C(F)(F)F)cc(-c3ccccc3)nc2n1

MIC (Klebsiella pneumoniae [32]): 50 µg/mL (≈ 89.5 µM) | MIC (Escherichia coli [20]): 25 µg/mL (≈ 44.8 µM) | MIC (Staphylococcus aureus [33]): 25 µg/mL (≈ 44.8 µM) | MIC (Pseudomonas aeruginosa [34]): 50 µg/mL (≈ 89.5 µM) | MIC (Streptococcus pyogenes [29]): 25 µg/mL
Structure (SMILES): Nc1c(-c2nc3ccccc3s2)c(-c2ccc(Cl)cc2)nc2nc(N/N=C/c3cccc(Cl)c3)[nH]c(=O)c12

MIC (Staphylococcus xylosus): 100 µg/mL (≈ 223 µM) | MIC (Acinetobacter sp.): 50 µg/mL (≈ 112 µM) | MIC (Micrococcus sp.): 100 µg/mL (≈ 223 µM) | MIC (Micrococcus luteus [9]): 100 µg/mL (≈ 223 µM) | MIC (Corynebacterium xerosis): 30 µg/mL (≈ 67 µM) | MIC [10]: 50 µg/mL (≈ 112 µM) | MIC [11]: 100 µg/mL (≈ 223 µM) | MIC [12]: 100 µg/mL (≈ 223 µM) | MIC (Corynebacterium sp.): 100 µg/mL (≈ 223 µM) | MIC (Alcaligenes faecalis): > 500 µg/mL | MIC [13]: 100 µg/mL | MIC (Moraxella catarrhalis): 100 µg/mL (≈ 223 µM) | MIC (Staphylococcus hominis): 100 µg/mL (≈ 223 µM) | MIC (Micrococcus luteus [15]): 100 µg/mL | MIC (Staphylococcus cohnii): 100 µg/mL (≈ 223 µM)
Structure (SMILES): Clc1ccc(C(Cc2ccccc2)c2c(Cl)nc(N3CCNCC3)nc2Cl)cc1 (stereo unspecified)
MIC [14]: 100 µg/mL (≈ 223 µM) | MIC [16]: 10 µg/mL (≈ 22.3 µM)

MIC (Klebsiella pneumoniae [32]): 12.5 µg/mL (≈ 22 µM) | MIC (Escherichia coli [20]): 12.5 µg/mL (≈ 22 µM) | MIC (Staphylococcus aureus [33]): 12.5 µg/mL (≈ 22 µM) | MIC (Pseudomonas aeruginosa [34]): 12.5 µg/mL (≈ 22 µM) | MIC (Streptococcus pyogenes [29]): 12.5 µg/mL
Structure (SMILES): Nc1c(-c2nc3ccccc3s2)c(-c2ccc(Cl)cc2)nc2nc(N/N=C/c3cccc([N+](=O)[O-])c3)[nH]c(=O)c12
